Test results as given in patent US20090023687A1, “Method for Controlling Phytopathogenic Organisms” (SYNGENTA CROP PROTECTION, INC., priority 2005, published 2009).
Like-named read-outs stand apart in the source and are kept apart here.

How the values were obtained:
Assay type in all cases: in vivo
[1] = test system: Phakopsora pachyrhizi; assay: Application on whole plants: leaf disc test with Phakopsora pachyrhizi on glyphosate sensitive soybean (Example 5)
Source text: (§1) A synergistic effect exists whenever the action of an active ingredient combination is greater than the action expected from the effect of the individual components.
(§2) The action to be expected (E) for a given active ingredient combination obeys the so-called COLBY formula and can be calculated as follows (COLBY, S. R. “Calculating synergistic and antagonistic responses of herbicide combination”. Weeds, Vol. 15, pages 20-22; 1967):
(§3) ppm=milligrams of active ingredient (=a.i.) per litre of spray mixture X=% action by active ingredient I using p ppm of active ingredient Y=% action by active ingredient II using q ppm of active ingredient.
(§4) According to Colby, the expected (additive) action of active ingredients I+II using p+q ppm of active ingredient is
(§5) If the action actually observed (O) is greater than the expected action (E), then the action of the combination is superadditive, i.e. there is a synergistic effect.
(§6) A series of leaf disc tests were conducted to show the effects of tank mixtures of glyphosate and pesticides or plant activators on Asian soybean rust. The soybean variety tested was brand Williams82 glyphosate sensitive soybean. The leaf source for the testing was the first trifoliate leaf. Six (6) repetitions for each formulation and at each rate were conducted. Treatment of whole plants with the recited active ingredients was conducted 4 weeks after planting. After application, leaf disks were cut and inoculated with Phakopsora pachyrhizi (Asian soybean rust (ASR)) one (1) day after treatment. Evaluation of the leaf was conducted ten (10) days after inoculation and the mean percent infestation of the six repetitions is reported in Tables 12-14.
As glyphosate source Touchdown® HiTech or Zapp® QI was used. The fungicides were used as commercial formulations: Cantus® WG50 fungicide comprising boscalid (BASF AG), Quadris® SC250 fungicide and Bion® WG50 plant activator comprising acibenzolar-S-methyl. The rates of the active ingredients used in the tests are set in Tables 12-14 as g active ingredient (a.i.)/hectare (ha). The spray volume was 200 l/ha.

[2] = test system: Puccinia recondita; assay: Greenhouse trial with Puccinia recondita on glyphosate sensitive wheat (Example 3); conditions: read-out: % activity observed
Source text: as §1, §2, §3, §4, §5
Greenhouse tests were conducted to show the effects of tank mixtures of glyphosate and the ortho-substituted phenyl-amide (OPA) fungicides represented by structures F-10, F-5 and F-9 on cereal rust Puccinia recondita. The wheat variety tested was brand Kanzler glyphosate sensitive wheat. Three (3) repetitions for each formulation and at each rate were conducted. Treatment of the plants with the recited active ingredients was conducted preventatively 16 days after planting. The leaves were inoculated with Puccinia recondita one (1) day after treatment. Evaluation of the leaf was conducted […] after inoculation and the mean percent infestation of the three repetitions is reported in Tables 5-7.
(§7) The glyphosate source was Zapp® QI herbicide containing the potassium salt of glyphosate as well as an adjuvant system. The compound OPA F-5 used was a compound of formula F-5, wherein the ratio of racemic compounds of formula F-3 (syn) to racemic compounds of formula F-4 (anti) was 9:1. The compound OPA F-9 used was a compound of formula F-9, wherein the ratio of racemic compounds of formula F-7 (trans) to racemic compounds of formula F-8 (cis) was around 100:1. The fungicides used were EC 100 formulations of OPA F-10, OPA F-5 and OPA F-9 which are emulsion concentrates containing 100 ga.i./L. The rates of the active ingredients used in the tests are set in Tables 5-7 as mg active ingredient (a.i.)/L.

[3] = test system: Phakopsora pachyrhizi; assay: Application on whole plants: leaf disc test with Phakopsora pachyrhizi on glyphosate tolerant soybean (Example 6)
Source text: as §1, §2, §3, §4, §5
as §6, with “Leaf” for “A series of leaf”, “S40-R9” for “Williams82”, “tolerant” for “sensitive”, “[…]” for “of whole plants with the recited active ingredients was conducted 4 weeks after planting. After”, “15-17.” for “12-14.”
As glyphosate source Touchdown® HiTech or Zapp® QI was used. The fungicides were used as commercial formulations: Bravo® SC500 fungicide comprising chlorothalonil (Syngenta Corp.), Score® EC250 fungicide comprising difenaconazole (Syngenta Corp.) and Mancozeb 80WP fungicide comprising mancozeb. The rates of the active ingredients used in the tests are set in Tables 15-17 as g active ingredient (a.i.)/hectare (ha). The spray volume was 200 l/ha.

[4] = test system: Phakopsora pachyrhizi; assay: whole plant or invertebrate; conditions: in Glycine max, foliar, read-out: % activity observed
Source text: as §1, §2, §3, §4, §5
as §6, with “the ortho-substituted phenyl-amide (OPA) fungicides represented by structures F-5 and F-9” for “pesticides or plant activators”, “the leaf” for “whole plants”, “The leaves” for “After application, leaf disks”, “were” for “were cut and”, “3 and 4.” for “12-14.”
as §7, with “Touchdown® HiTech” for “Zapp® QI”, “herbicide (Syngenta Corp.),” for “herbicide”, “and no” for “as well as an”, “EC100” for “EC 100”, “of” for “of OPA F-10,”, “the table” for “Tables 5-7”

[5] = test system: Phakopsora pachyrhizi; assay: Leaf disc test with Phakopsora pachyrhizi on glyphosate sensitive soybean, leaf disks treated (Example 4)
Source text: as §1, §2, §3, §4, §5
as §6, with “the leaf disks” for “whole plants”, “The leaves” for “After application, leaf disks”, “were” for “were cut and”, “8-11.” for “12-14.”
As glyphosate source Touchdown® HiTech or Zapp® QI was used. The fungicides were used as commercial formulations: Bion® WG50 plant activator comprising acibenzolar-S-methyl (Syngenta Corp.), Opus® SC125 fungicide comprising epoxiconazole commercially (BASF AG), Tilt® EC250 fungicide comprising propiconazole (Syngenta Corp.), Quadris® SC250 fungicide comprising azoxystrobin (Syngenta Corp.). The rates of the active ingredients used in the tests are set in Tables 8-11 as mg active ingredient (a.i.)/L.

[6] = Boscalid Cantus WG50 250 g a.i./ha
[7] = Boscalid Cantus WG50 500 g a.i./ha
[8] = Chlorothalonil Bravo SC500 83.3 g a.i./ha
[9] = Chlorothalonil Bravo SC500 1500 g a.i./ha
[10] = Difenoconazole Score EC250 5 g a.i./ha
[11] = Difenoconazole Score EC250 15 g a.i./ha
[12] = Acibenzolar Bion WG50 10 g a.i./ha
[13] = Acibenzolar Bion WG50 60 g a.i./ha
[14] = Acibenzolar Bion WG50 6.7 mg a.i./L
[15] = Acibenzolar Bion WG50 20 mg a.i./L
[16] = Propiconazole Tilt EC250 0.7 mg a.i./L
[17] = Epoxiconazole Opus SC125 0.2 mg a.i./L
[18] = Azoxystrobin Quadris SC250 50 g a.i./ha
[19] = Azoxystrobin Quadris SC250 100 g a.i./ha
[20] = Azoxystrobin Quadris SC250 0.2 mg a.i./L
[21] = Azoxystrobin Quadris SC250 0.7 mg a.i./L

Question: With `O=C(Nc1ccccc1-c1ccc(Cl)cc1)c1cccnc1Cl` [Boscalid, boscalid] as the compound, how does the Activity observed % [1, 6] read?
Answer: 7%

Question: What about the Leaf attack % [1, 6] of the same compound?
Answer: 58%

Question: And the Activity observed % [1, 7]?
Answer: 19%

Question: And the Leaf attack % [1, 7]?
Answer: 50%

Question: `Cn1cc(C(=O)Nc2ccccc2-c2ccc(C#CC(C)(C)C)cc2)c(C(F)F)n1` [OPA F-10] was tested. Which inhibition at 2.2 µg/mL ([2]; OPA F-10 2.2 mg a.i./L) did it give?
Answer: 0%

Question: And the inhibition at 6.6 µg/mL ([2]; OPA F-10 6.6 mg a.i./L)?
Answer: 0%

Question: Which Activity observed % ([3]; Mancozeb WP80 750 g a.i./ha) does the source give for mancozeb here?
Answer: 47%

Question: What about the Leaf attack % ([3]; Mancozeb WP80 750 g a.i./ha) of the same compound?
Answer: 32%

Question: What about the Activity observed % ([3]; Mancozeb WP80 1500 g a.i./ha) of the same compound?
Answer: 37%

Question: And the Leaf attack % ([3]; Mancozeb WP80 1500 g a.i./ha)?
Answer: 38%

Question: For `N#Cc1c(Cl)c(Cl)c(Cl)c(C#N)c1Cl` [Chlorothalonil, chlorothalonil], which Activity observed % [3, 8] is on record?
Answer: 0%

Question: What about the Leaf attack % [3, 8] of the same compound?
Answer: 80%

Question: What about the Activity observed % [3, 9] of the same compound?
Answer: 17%

Question: And the Leaf attack % [3, 9]?
Answer: 50%

Question: How did the inhibition at 0.2 µg/mL ([4]; OPA F-9 0.2 mg a.i./L) turn out when `Cn1cc(C(=O)Nc2ccccc2C2CC2C2CC2)c(C(F)F)n1` (racemic) [OPA F-9] was run?
Answer: 0%

Question: And the inhibition at 0.7 µg/mL ([4]; OPA F-9 0.7 mg a.i./L)?
Answer: 0%

Question: What about the inhibition at 2.2 µg/mL ([4]; OPA F-9 2.2 mg a.i./L) of the same compound?
Answer: 24%

Question: And the inhibition at 6.7 µg/mL ([4]; OPA F-9 6.7 mg a.i./L)?
Answer: 74%

Question: And the inhibition at 20 µg/mL ([4]; OPA F-9 20 mg a.i./L)?
Answer: 100%

Question: And the inhibition at 6.6 µg/mL ([2]; OPA F-9 6.6 mg a.i./L)?
Answer: 81.9%

Question: Which Activity observed % [3, 10] does the source give for `CC1COC(Cn2cncn2)(c2ccc(Oc3ccc(Cl)cc3)cc2Cl)O1` (centres unmarked) [Difenoconazole, difenaconazole] here?
Answer: 0%

Question: And the Leaf attack % [3, 10]?
Answer: 50%

Question: And the Activity observed % [3, 11]?
Answer: 0%

Question: And the Leaf attack % [3, 11]?
Answer: 50%

Question: What does the source list for `CSC(=O)c1cccc2nnsc12` [Acibenzolar, acibenzolar-S-methyl]?
Answer: Activity observed % [1, 12]: 19%; Leaf attack % [1, 12]: 50%; Activity observed % [1, 13]: 31%; Leaf attack % [1, 13]: 43%; Activity observed % [5, 14]: 0%; Leaf attack % [5, 14]: 74%; Activity observed % [5, 15]: 10%; Leaf attack % [5, 15]: 62%

Question: Which results are given for `CCCC1COC(Cn2cncn2)(c2ccc(Cl)cc2Cl)O1` (centres unmarked) [Propiconazole, propiconazole]?
Answer: Activity observed % [5, 16]: 4%; Leaf attack % [5, 16]: 74%

Question: `Fc1ccc([C@]2(Cn3cncn3)O[C@H]2c2ccccc2Cl)cc1` (racemic) [Epoxiconazole, epoxiconazole] was tested. Which Activity observed % [5, 17] did it give?
Answer: 19%

Question: And the Leaf attack % [5, 17]?
Answer: 62%

Question: Which results are given for `CO/C=C(/C(=O)OC)c1ccccc1Oc1cc(Oc2ccccc2C#N)ncn1` [Azoxystrobin, azoxystrobin]?
Answer: Activity observed % [1, 18]: 0%; Leaf attack % [1, 18]: 62%; Activity observed % [1, 19]: 29%; Leaf attack % [1, 19]: 44%; Activity observed % [5, 20]: 15%; Leaf attack % [5, 20]: 68%; Activity observed % [5, 21]: 60%; Leaf attack % [5, 21]: 32%
